Source: patent publication US11325909B2, “Crystalline 2-amino-2-(hydroxymethyl)propane-1,3-diol salt of 4-(4-(1-isopropyl-7-OXO-1,4,6,7-tetrahydrospiro[indazole-5,4′-piperidine]-1′-carbonyl)-6-methoxypryridin-2-YL)benzoic acid” (Pfizer Inc., priority 2017, dated 2022)
Counter-ions that a name gives are not always drawn. Blank lines part the entries; values can stand above or below the compound they belong to.

Columns and labels:
[1] = Thermodynamic solubility (24 hours agitation at RT, filtration, nitrogen detector); format: physicochemical; conditions: for Solubility pH 1.2: pH 1.2, 24 hours at RT; for Solubility pH 6.5: pH 6.5, 24 hours at RT; for Solubility pH 7.4: pH 7.4, 24 hours at RT
Protocol: Four hundred fifty microliters (450 μL) of the desired medium was added to the filter and agitated for 24 hours at RT. After 24 hours, the sample was filtered and the filtrates were injected into a nitrogen detector for quantification.
pH 1.2: Weigh out 1.0 g of NaCl and transfer to a beaker. Add about 450 mL HPLC-grade water to dissolve the NaCl. […] Transfer the solution to a 500 mL volumetric flask and bring to 500 mL with HPLC-grade water.
pH 6.5: Titrate about 250 mL of 50 mM NaPO4 dibasic with about 500 mL of 50 mM NaPO4 monobasic to pH 6.5. The ending total volume is the volume at the point the solution has a pH 6.5 is reached when adding 50 mM NaPO4 monobasic to the 50 mM NaPO4 dibasic.
pH 7.4: Titrate about 200 mL of 50 mM NaPO4 dibasic with about 50 mL of 50 mM NaPO4 monbasic to pH 7.4. The ending total volume is the volume at the point the solution has a pH 7.4 is reached when adding 50 mM NaPO4 monobasic to the 50 mM NaPO4 dibasic.

[2] = Hygroscopicity observed during salt evaluation (mainly through visualization); format: physicochemical
Description: Determining whether a solid would form was just one factor in this evaluation. […] See, e.g., C. Saal, A. Becker, Euro.

[3] = Pharmacokinetic studies, oral dose, male (fasted) cynomolgus monkeys; format: in vivo
Protocol: Pharmacokinetic studies were conducted in male (fasted) cynomolgus monkeys (n=2 for each formulation). An oral pill was prepared to compare Form 1 and Form 2. […] The dosage was administered as an oral dose containing 2, 5, or 10 mg/kg, respectively. Serial blood samples were collected at the 0, 0.25, 0.5, 1, 2, 4, 7, and 24-hour time points via the femoral vein by syringe and transferred into K3EDTA vacutainers. Blood samples were then centrifuged, the plasma harvested and stored at −20° C. or −80° C. until analysis.
The appropriate amount of either Form 1 or Form 2 was transferred into a mortar. The corresponding amount of the excipient blend was then geometrically added to the mortar and mixed thoroughly with the respective Form 1 or Form 2 using a pestle. The mixture was transferred to a container, and blended on a Turbula mixer for 5 minutes to provide a blend containing the respective Form 1 or Form 2 mixed with the excipients.
The tablets were compressed to achieve 100 mg tablet weight, with target tablet hardness between 4 and 9 kp at the press speed of 15 tablets per minute.
To prepare a representative batch size of 1 L of 0.5% (w/v) methylcellulose (Methocel® A4M) solution, approximately 0.4 L of deionized water was heated to 80-90° C. after which 5 grams of methylcellulose (Methocel® A4M) was added and mixed thoroughly until the particles were thoroughly wetted. The mixture was then removed from heat. Cold water (0.6 L) was then added, while continuously stirring in the ice bath, until all the methylcellulose particles were dissolved.
The solid powder was triturated (lumps broken) using a pestle. Two mL of 0.5% w/v methylcellulose (Methocel® A4M) was added to the powder drop-wise. The vehicle and free acid were well mixed to form a smooth paste. The remaining of the vehicle was added in small aliquots while mixing until a uniform suspension was obtained. […] Twenty-two microliter of Polysorbate 80 (Tween® 80) was added to the suspension.
The solid powder was triturated (lumps broken) using a pestle. Small amount of 0.5% w/v methylcellulose (Methocel® A4M) was added to the powder to form a smooth paste. The remaining of the vehicle was added in small aliquots while mixing until a uniform suspension was obtained. The suspension was transferred to a container and made up to final volume of 50 mL.

[4] = Hygroscopicity by dynamic vapor sorption; format: physicochemical; conditions: at 90% RH/25° C.
Protocol: Hygroscopicity was measured using a dynamic vapor sorption instrument manufactured by TA Instruments or Surface Measurement Systems. A sample of each Form was exposed to incremental RH levels until either a weight equilibrium (seen as a plateau) of ≤0.001% weight change in 5 minutes was met, or a maximum time of 120 minutes at each RH level. After the shorter of 0.001% weight equilibrium in 5 minutes or 120 minutes, the sample was then exposed to the next RH level. There was an initial drying period where weight may have been lost with Form 1, no drying was utilized for Form 2. The process starts at 10% RH with RH increased to 20% RH and then a 10% RH increase after each interval (0.001% in 5 minutes equilibrium or 120 min, whichever occurred first). At 90% RH, the RH was reversed back to 10% RH using the same equilibration criteria. The hygroscopicity is measured as a function of the percent weight gain measured at 90% RH.

[5] = Thermodynamic stability of crystalline forms versus water activity; format: physicochemical; conditions: ambient temperature; 0.2 corresponds to 20% RH
[6] = Immediate Release Tablet, 2 mg/kg

Compound: [K+] [potassium]
hygroscopicity of the isolated solid (observation) [2]: too hygroscopic

Compound: O=S(=O)(O)O [sulfuric acid]
hygroscopicity of the isolated solid (observation) [2]: very hygroscopic

Compound: sodium
hygroscopicity of the isolated solid (observation) [2]: too hygroscopic

Continued, values first:

Solubility pH 1.2 [1]: 13.5 μM | Solubility pH 6.5 [1]: 1500.0 μM | Solubility pH 7.4 [1]: 5050.0 μM | hygroscopicity of the isolated solid (observation) [2]: too hygroscopic
Compound: [Ca] [Calcium]

Solubility pH 1.2 ([1]; listed as Free acid - batch A): 11.8 (avg, n = 2, μM | Solubility pH 1.2 ([1]; listed as Free acid - batch B): 13.0 (avg, n = 2, μM | Solubility pH 1.2 ([1]; listed as Free acid - batch C): <0.5 μM | Solubility pH 6.5 ([1]; listed as Free acid - batch A): 44.7 (avg, n = 2, μM | Solubility pH 6.5 ([1]; listed as Free acid - batch B): 222.0 (avg, n = 2, μM | Solubility pH 6.5 ([1]; listed as Free acid - batch C): 19.6 μM | Solubility pH 7.4 ([1]; listed as Free acid - batch A): 255.0 (avg, n = 2, μM | Solubility pH 7.4 ([1]; listed as Free acid - batch B): 1700.0 (avg, n = 2, μM | Solubility pH 7.4 ([1]; listed as Free acid - batch C): 194.0 μM | AUC/Dose ([3]; Suspension, 10 mg/kg): 4120 ng*h/ml/mpk
Compound: COc1cc(C(=O)N2CCC3(CC2)CC(=O)c2c(cnn2C(C)C)C3)cc(-c2ccc(C(=O)O)cc2)n1 [Compound 1, 4-(4-(1-isopropyl-7-oxo-1,4,6,7-tetrahydrospiro[indazole-5,4′-piperidine]-1′-carbonyl)-6-methoxypyridin-2-yl)benzoic acid]

Solubility pH 1.2 ([1]; listed as Tris (Form 1)): 1320.0 μM | Solubility pH 6.5 ([1]; listed as Tris (Form 1)): 3980.0 μM | Solubility pH 7.4 ([1]; listed as Tris (Form 1)): 4770.0 μM | AUC/Dose [3, 6]: 5750 ng*h/ml/mpk | AUC/Dose ([3]; Suspension, 5 mg/kg): 7240 ng*h/ml/mpk | hygroscopicity (percent weight gain) [4]: about 1% | water activity at which the form is thermodynamically stable [5]: < 0.2
Compound: COc1cc(C(=O)N2CCC3(CC2)CC(=O)c2c(cnn2C(C)C)C3)cc(-c2ccc(C(=O)O)cc2)n1 [Form 1, 4-(4-(1-isopropyl-7-oxo-1,4,6,7-tetrahydrospiro[indazole-5,4′-piperidine]-1′-carbonyl)-6-methoxypyridin-2-yl)benzoic acid anhydrous tris salt]

AUC/Dose [3, 6]: 5650 ng*h/ml/mpk | hygroscopicity (percent weight gain) [4]: about 1% | water activity at which the form is thermodynamically stable [5]: > 0.2
Compound: COc1cc(C(=O)N2CCC3(CC2)CC(=O)c2c(cnn2C(C)C)C3)cc(-c2ccc(C(=O)O)cc2)n1 [Form 2]
